Holding throughout (experiment): MIC by broth dilution (NCCLS M7-A2)
Type in all cases: cell-based
Conditions in all cases: 90% growth inhibition
A general note: Broth dilution looks for growth in wells or tubes with falling amounts of substance.

One test deals with E. faecalis ATCC 29212. The text has this: (§1) MIC levels for all compound were determinated on panel of susceptible, and resistant Gram positive bacterial strains (S. aureus, S. pneumoniae and S. pyogenes) and on Gram negative strains (E. coli, H. influenzae, […], M. catarrhalis).
The next test deals with S. pyogenes M.
From the text: as §1

For the next test, the system named is S. pyogenes.
From the text: as §1

For the next test, the system named is H. influenzae ATCC 49247.
From the text: as §1

The test system of test [1] is M. catarrhalis ATCC 23246.
From the text: as §1

In a further test the test system is E. coli ATCC 25922.
From the text: as §1

A further test deals with S. pyogenes iMLS.
From the text: as §1

A further test concerns S. aureus ATCC 13709.
From the text: as §1

The next test deals with S. pneumoniae.
From the text: as §1

For “9-Deoxo-9-dihydro-9a-N-[N′-(β-cyanoethyl)-N′-(3,4,5-trimethoxyphenyl)carbamoyl-γ-aminopropyl]-9a-aza-9a-homoerithromycin A [Example 37]”, the MIK in the test with E. faecalis ATCC 29212 is 16 µg/mL; with S. pyogenes M it was 8 µg/mL; in the test on S. pyogenes it was “≦0.125 μg/ml”; in the test with H. influenzae ATCC 49247, 2 µg/mL; in test [1], 1 µg/mL; with E. coli ATCC 25922, 16 µg/mL. Further, the MIK is 47 µg/mL in the test with S. pyogenes iMLS, 4 µg/mL in the test on S. aureus ATCC 13709 and “≦0.125 μg/ml” in the test with S. pneumoniae.

Source of the values: patent US7342000B2, “Semisynthetic macrolide antibiotics of the azalide series” (GlaxoSmithKline istrazivacki center Zagreb, priority 2002, dated 2008).
